Experimental data: the NIST ThermoML archive (doi:10.1016/j.jct.2010.10.016)

Test: xn = mol fraction of the nth substance listed
Settings: 101 kPa, Liquid; for viscosity: Capillary tube (Ostwald / Ubbelohde) method; for mass density: Pycnometric method; for speed of sound: Resonance method

CCCCOCCO [2-butoxyethan-1-ol] + C[N+](=O)[O-]
Settings	mass density [kg/m3]	speed of sound [m/s]	viscosity [mPa·s]
293.15 K, x2 = 0	901.19	1323.9	3.239
293.15 K, x2 = 0.05	905.83	–	–
293.15 K, x2 = 0.0507	–	1322.4	–
293.15 K, x2 = 0.0557	–	–	3.019
293.15 K, x2 = 0.0999	910.77	–	–
293.15 K, x2 = 0.1001	–	1321.8	–
293.15 K, x2 = 0.106	–	–	2.815
293.15 K, x2 = 0.1974	–	–	2.451
293.15 K, x2 = 0.2	921.75	–	–
293.15 K, x2 = 0.2003	–	1318.8	–
293.15 K, x2 = 0.3	934.29	–	–
293.15 K, x2 = 0.3003	–	1316.1	–
293.15 K, x2 = 0.3083	–	–	2.031
293.15 K, x2 = 0.4	948.84	–	–
293.15 K, x2 = 0.4005	–	1313.7	–
293.15 K, x2 = 0.4014	–	–	1.716
293.15 K, x2 = 0.4487	–	–	1.571
293.15 K, x2 = 0.4997	–	–	1.432
293.15 K, x2 = 0.5	966.21	–	–
293.15 K, x2 = 0.5002	–	1312	–
293.15 K, x2 = 0.5492	–	–	1.307
293.15 K, x2 = 0.5947	–	–	1.203
293.15 K, x2 = 0.6	987.24	1311.8	–
293.15 K, x2 = 0.699	–	–	0.996
293.15 K, x2 = 0.7	1013.09	1313.7	–
293.15 K, x2 = 0.7999	–	1318.2	–
293.15 K, x2 = 0.8002	1045.18	–	–
293.15 K, x2 = 0.8012	–	–	0.838
293.15 K, x2 = 0.8981	–	–	0.72
293.15 K, x2 = 0.8999	1085.39	1326.4	–
293.15 K, x2 = 0.9475	–	–	0.679
293.15 K, x2 = 0.95	–	1332.4	–
293.15 K, x2 = 0.9503	1109.89	–	–
298.15 K, x2 = 0	896.29	1306.8	–
298.15 K, x2 = 0.05	900.85	–	–
298.15 K, x2 = 0.0507	–	1305.6	–
298.15 K, x2 = 0.0999	905.68	–	–
298.15 K, x2 = 0.1001	–	1304.5	–
298.15 K, x2 = 0.2	916.48	–	–
298.15 K, x2 = 0.2003	–	1302.2	–
298.15 K, x2 = 0.3	928.9	–	–
298.15 K, x2 = 0.3003	–	1299.6	–
298.15 K, x2 = 0.4	943.34	–	–
298.15 K, x2 = 0.4005	–	1297.2	–
298.15 K, x2 = 0.5	960.53	–	–
298.15 K, x2 = 0.5002	–	1295.5	–
298.15 K, x2 = 0.6	981.35	1295.2	–
298.15 K, x2 = 0.7	1006.9	1296.8	–
298.15 K, x2 = 0.7999	–	1300.9	–
298.15 K, x2 = 0.8002	1038.68	–	–
298.15 K, x2 = 0.8999	1078.61	1308.5	–
298.15 K, x2 = 0.95	–	1313.8	–
298.15 K, x2 = 0.9503	1103.01	–	–
298.45 K, x2 = 0	–	–	2.825
298.45 K, x2 = 0.0506	–	–	2.654
298.45 K, x2 = 0.1012	–	–	2.483
298.45 K, x2 = 0.2015	–	–	2.165
298.45 K, x2 = 0.2997	–	–	1.873
298.45 K, x2 = 0.4047	–	–	1.581
298.45 K, x2 = 0.4498	–	–	1.464
298.45 K, x2 = 0.5008	–	–	1.339
298.45 K, x2 = 0.5481	–	–	1.234
298.45 K, x2 = 0.5976	–	–	1.131
298.45 K, x2 = 0.6984	–	–	0.943
298.45 K, x2 = 0.7981	–	–	0.8
298.45 K, x2 = 0.8986	–	–	0.689
298.45 K, x2 = 0.9394	–	–	0.655
303.15 K, x2 = 0	892.35	1290.6	2.449
303.15 K, x2 = 0.05	896.7	–	–
303.15 K, x2 = 0.0507	–	1289.5	–
303.15 K, x2 = 0.0522	–	–	2.307
303.15 K, x2 = 0.0999	901.4	–	–
303.15 K, x2 = 0.1001	–	1288.6	–
303.15 K, x2 = 0.1004	–	–	2.171
303.15 K, x2 = 0.2	911.94	–	–
303.15 K, x2 = 0.2003	–	1286.3	–
303.15 K, x2 = 0.2155	–	–	1.85
303.15 K, x2 = 0.299	–	–	1.635
303.15 K, x2 = 0.3	924.13	–	–
303.15 K, x2 = 0.3003	–	1283.6	–
303.15 K, x2 = 0.3996	–	–	1.399
303.15 K, x2 = 0.4	938.41	–	–
303.15 K, x2 = 0.4005	–	1281.1	–
303.15 K, x2 = 0.4495	–	–	1.292
303.15 K, x2 = 0.5	955.38	–	–
303.15 K, x2 = 0.5002	–	1279.2	1.191
303.15 K, x2 = 0.5482	–	–	1.102
303.15 K, x2 = 0.5993	–	–	1.01
303.15 K, x2 = 0.6	975.84	1278.5	–
303.15 K, x2 = 0.6998	–	–	0.858
303.15 K, x2 = 0.7	1000.85	1279.5	–
303.15 K, x2 = 0.7994	–	–	0.738
303.15 K, x2 = 0.7999	–	1282.9	–
303.15 K, x2 = 0.8002	1032.09	–	–
303.15 K, x2 = 0.8999	1071.54	1288.9	–
303.15 K, x2 = 0.9005	–	–	0.648
303.15 K, x2 = 0.9436	–	–	0.619
303.15 K, x2 = 0.95	–	1293.2	–
303.15 K, x2 = 0.9503	1095.83	–	–
308.15 K, x2 = 0	887.83	1273.5	2.079
308.15 K, x2 = 0.05	891.97	–	–
308.15 K, x2 = 0.0501	–	–	1.967
308.15 K, x2 = 0.0507	–	1273.1	–
308.15 K, x2 = 0.0999	896.44	–	–
308.15 K, x2 = 0.1001	–	1272.2	–
308.15 K, x2 = 0.1048	–	–	1.844
308.15 K, x2 = 0.198	–	–	1.639
308.15 K, x2 = 0.2	906.69	–	–
308.15 K, x2 = 0.2003	–	1270.2	–
308.15 K, x2 = 0.3	918.65	–	–
308.15 K, x2 = 0.3003	–	1267.9	–
308.15 K, x2 = 0.3012	–	–	1.427
308.15 K, x2 = 0.3999	–	–	1.243
308.15 K, x2 = 0.4	932.71	–	–
308.15 K, x2 = 0.4005	–	1265.9	–
308.15 K, x2 = 0.4502	–	–	1.154
308.15 K, x2 = 0.4998	–	–	1.071
308.15 K, x2 = 0.5	949.47	–	–
308.15 K, x2 = 0.5002	–	1264.2	–
308.15 K, x2 = 0.5499	–	–	0.991
308.15 K, x2 = 0.5998	–	–	0.917
308.15 K, x2 = 0.6	969.67	1263.4	–
308.15 K, x2 = 0.6994	–	–	0.786
308.15 K, x2 = 0.7	994.45	1264.3	–
308.15 K, x2 = 0.7997	–	–	0.685
308.15 K, x2 = 0.7999	–	1267.3	–
308.15 K, x2 = 0.8002	1025.45	–	–
308.15 K, x2 = 0.8986	–	–	0.616
308.15 K, x2 = 0.8999	1064.77	1273.2	–
308.15 K, x2 = 0.9465	–	–	0.59
308.15 K, x2 = 0.95	–	1276.9	–
308.15 K, x2 = 0.9503	1089.08	–	–
313.15 K, x2 = 0	883.59	1257.7	1.689
313.15 K, x2 = 0.05	887.43	–	–
313.15 K, x2 = 0.0507	–	1257.4	–
313.15 K, x2 = 0.0511	–	–	1.606
313.15 K, x2 = 0.0999	891.75	–	–
313.15 K, x2 = 0.1001	–	1256.8	–
313.15 K, x2 = 0.1135	–	–	1.493
313.15 K, x2 = 0.2	901.79	–	–
313.15 K, x2 = 0.2003	–	1254.9	–
313.15 K, x2 = 0.2156	–	–	1.314
313.15 K, x2 = 0.2993	–	–	1.18
313.15 K, x2 = 0.3	913.58	–	–
313.15 K, x2 = 0.3003	–	1252.7	–
313.15 K, x2 = 0.3971	–	–	1.042
313.15 K, x2 = 0.4	927.46	–	–
313.15 K, x2 = 0.4005	–	1250.6	–
313.15 K, x2 = 0.4497	–	–	0.974
313.15 K, x2 = 0.4973	–	–	0.915
313.15 K, x2 = 0.5	943.98	–	–
313.15 K, x2 = 0.5002	–	1248.8	–
313.15 K, x2 = 0.5458	–	–	0.858
313.15 K, x2 = 0.5989	–	–	0.798
313.15 K, x2 = 0.6	963.96	1248	–
313.15 K, x2 = 0.6958	–	–	0.698
313.15 K, x2 = 0.7	988.46	1248.7	–
313.15 K, x2 = 0.7999	–	1251.4	–
313.15 K, x2 = 0.8002	1018.86	–	–
313.15 K, x2 = 0.8004	–	–	0.617
313.15 K, x2 = 0.893	–	–	0.572
313.15 K, x2 = 0.8999	1057.69	1256.3	–
313.15 K, x2 = 0.9491	–	–	0.556
313.15 K, x2 = 0.95	–	1259.5	–
313.15 K, x2 = 0.9503	1081.78	–	–
